Reference: PubChem BioAssay (NCI)
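Five concentrations, 48 hours, 96-well plates. TGI marks complete inhibition of growth.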

Assays:
Test in all cases: inhibition of tumour cell growth, NCI panel, 48 h
786-0 renal = system: 786-0 renal
A549 NSCLC = system: A549 NSCLC
ACHN renal = system: ACHN renal
BT-549 breast = system: BT-549 breast
CAKI-1 renal = system: CAKI-1 renal
COLO 205 colon = system: COLO 205 colon
DU-145 prostate = system: DU-145 prostate
EKVX NSCLC = system: EKVX NSCLC
HCC-2998 colon = system: HCC-2998 colon
HCT-15 colon = system: HCT-15 colon
HOP-62 NSCLC = system: HOP-62 NSCLC
HOP-92 NSCLC = system: HOP-92 NSCLC
HS 578T breast = system: HS 578T breast
HT29 colon = system: HT29 colon
IGROV1 ovarian = system: IGROV1 ovarian
K-562 leukemia = system: K-562 leukemia
KM12 colon = system: KM12 colon
M14 melanoma = system: M14 melanoma
MALME-3M melanoma = system: MALME-3M melanoma
MCF7 breast = system: MCF7 breast
MDA-MB-231 breast = system: MDA-MB-231 breast
MDA-MB-435 = system: MDA-MB-435
MDA-N = system: MDA-N
MOLT-4 leukemia = system: MOLT-4 leukemia
NCI-H226 lung = system: NCI-H226 lung
NCI-H23 lung = system: NCI-H23 lung
NCI-H460 lung = system: NCI-H460 lung
NCI-H522 lung = system: NCI-H522 lung
NCI/ADR-RES ovarian = system: NCI/ADR-RES ovarian
OVCAR-3 ovarian = system: OVCAR-3 ovarian
OVCAR-5 ovarian = system: OVCAR-5 ovarian
PC-3 prostate = system: PC-3 prostate
RPMI-8226 leukemia = system: RPMI-8226 leukemia
RXF 393 renal = system: RXF 393 renal
SF-268 CNS = system: SF-268 CNS
SF-295 CNS = system: SF-295 CNS
SF-539 CNS = system: SF-539 CNS
SK-MEL-2 melanoma = system: SK-MEL-2 melanoma
SK-MEL-28 melanoma = system: SK-MEL-28 melanoma
SK-MEL-5 melanoma = system: SK-MEL-5 melanoma
SK-OV-3 ovarian = system: SK-OV-3 ovarian
SN12C renal = system: SN12C renal
SNB-19 CNS = system: SNB-19 CNS
SNB-75 CNS = system: SNB-75 CNS
SR leukemia = system: SR leukemia
SW-620 colon = system: SW-620 colon
T-47D breast = system: T-47D breast
TK-10 renal = system: TK-10 renal
U251 CNS = system: U251 CNS
UACC-62 melanoma = system: UACC-62 melanoma
UO-31 renal = system: UO-31 renal
A498 renal = system: A498 renal
HCT-116 colon = system: HCT-116 colon
HL-60(TB) leukemia = system: HL-60(TB) leukemia
LOX IMVI melanoma = system: LOX IMVI melanoma
OVCAR-4 ovarian = system: OVCAR-4 ovarian
OVCAR-8 ovarian = system: OVCAR-8 ovarian
UACC-257 melanoma = system: UACC-257 melanoma

Cc1ccc(N=C2C(=Nc3ccc(C)cc3)N(c3ccc(C)cc3)C(=S)N2C(=O)c2ccccc2)cc1
TGI (786-0 renal): > 100 µM
TGI (A549 NSCLC): > 100 µM
TGI (ACHN renal): > 100 µM
TGI (BT-549 breast): > 100 µM
TGI (CAKI-1 renal): > 100 µM
TGI (COLO 205 colon): > 100 µM
TGI (DU-145 prostate): > 100 µM
TGI (EKVX NSCLC): > 100 µM
TGI (HCC-2998 colon): > 100 µM
TGI (HCT-15 colon): > 100 µM
TGI (HOP-62 NSCLC): > 100 µM
TGI (HOP-92 NSCLC): > 100 µM
TGI (HS 578T breast): > 100 µM
TGI (HT29 colon): > 100 µM
TGI (IGROV1 ovarian): > 100 µM
TGI (K-562 leukemia): > 100 µM
TGI (KM12 colon): > 100 µM
TGI (M14 melanoma): > 100 µM
TGI (MALME-3M melanoma): > 100 µM
TGI (MCF7 breast): > 100 µM
TGI (MDA-MB-231 breast): > 100 µM
TGI (MDA-MB-435): > 100 µM
TGI (MDA-N): > 100 µM
TGI (MOLT-4 leukemia): > 100 µM
TGI (NCI-H226 lung): > 100 µM
TGI (NCI-H23 lung): > 100 µM
TGI (NCI-H460 lung): > 100 µM
TGI (NCI-H522 lung): > 100 µM
TGI (NCI/ADR-RES ovarian): > 100 µM
TGI (OVCAR-3 ovarian): > 100 µM
TGI (OVCAR-5 ovarian): > 100 µM
TGI (PC-3 prostate): > 100 µM
TGI (RPMI-8226 leukemia): > 100 µM
TGI (RXF 393 renal): > 100 µM
TGI (SF-268 CNS): > 100 µM
TGI (SF-295 CNS): 32.3 µM
TGI (SF-539 CNS): > 100 µM
TGI (SK-MEL-2 melanoma): > 100 µM
TGI (SK-MEL-28 melanoma): > 100 µM
TGI (SK-MEL-5 melanoma): > 100 µM
TGI (SK-OV-3 ovarian): > 100 µM
TGI (SN12C renal): > 100 µM
TGI (SNB-19 CNS): > 100 µM
TGI (SNB-75 CNS): 81.2 µM
TGI (SR leukemia): > 100 µM
TGI (SW-620 colon): > 100 µM
TGI (T-47D breast): > 100 µM
TGI (TK-10 renal): > 100 µM
TGI (U251 CNS): > 100 µM
TGI (UACC-62 melanoma): > 100 µM
TGI (UO-31 renal): > 100 µM

CC(=O)c1c2n(n(-c3ccccc3)c1=O)C(=O)c1nccnc1-2
TGI (786-0 renal): > 100 µM
TGI (A498 renal): > 100 µM
TGI (A549 NSCLC): > 100 µM
TGI (ACHN renal): > 100 µM
TGI (BT-549 breast): > 100 µM
TGI (CAKI-1 renal): > 100 µM
TGI (COLO 205 colon): > 100 µM
TGI (DU-145 prostate): > 100 µM
TGI (EKVX NSCLC): > 100 µM
TGI (HCC-2998 colon): > 100 µM
TGI (HCT-116 colon): > 100 µM
TGI (HCT-15 colon): > 100 µM
TGI (HL-60(TB) leukemia): > 100 µM
TGI (HOP-92 NSCLC): > 100 µM
TGI (HS 578T breast): > 100 µM
TGI (HT29 colon): > 100 µM
TGI (IGROV1 ovarian): > 100 µM
TGI (K-562 leukemia): > 100 µM
TGI (KM12 colon): > 100 µM
TGI (LOX IMVI melanoma): > 100 µM
TGI (M14 melanoma): > 100 µM
TGI (MALME-3M melanoma): > 100 µM
TGI (MCF7 breast): > 100 µM
TGI (MDA-MB-231 breast): > 100 µM
TGI (MDA-MB-435): > 100 µM
TGI (MDA-N): > 100 µM
TGI (MOLT-4 leukemia): > 100 µM
TGI (NCI-H226 lung): > 100 µM
TGI (NCI-H23 lung): > 100 µM
TGI (NCI-H460 lung): > 100 µM
TGI (NCI-H522 lung): > 100 µM
TGI (NCI/ADR-RES ovarian): > 100 µM
TGI (OVCAR-3 ovarian): > 100 µM
TGI (OVCAR-4 ovarian): > 100 µM
TGI (OVCAR-5 ovarian): > 100 µM
TGI (OVCAR-8 ovarian): > 100 µM
TGI (PC-3 prostate): > 100 µM
TGI (RPMI-8226 leukemia): > 100 µM
TGI (RXF 393 renal): > 100 µM
TGI (SF-268 CNS): > 100 µM
TGI (SF-295 CNS): > 100 µM
TGI (SF-539 CNS): > 100 µM
TGI (SK-MEL-2 melanoma): > 100 µM
TGI (SK-MEL-28 melanoma): > 100 µM
TGI (SK-MEL-5 melanoma): > 100 µM
TGI (SK-OV-3 ovarian): > 100 µM
TGI (SN12C renal): > 100 µM
TGI (SNB-19 CNS): > 100 µM
TGI (SNB-75 CNS): > 100 µM
TGI (SR leukemia): > 100 µM
TGI (SW-620 colon): > 100 µM
TGI (T-47D breast): > 100 µM
TGI (U251 CNS): > 100 µM
TGI (UACC-257 melanoma): > 100 µM
TGI (UACC-62 melanoma): > 100 µM
TGI (UO-31 renal): > 100 µM
